The values below come from ChEMBL document CHEMBL1201862, “PubChem BioAssay data set” (2004).

The source made the active and inactive calls. A value given as a limit tells only on which side of the number the result lay.

One assay has as its target T1, Mucolipin-3 (Homo sapiens, UniProt Q8TDD5).
T1 sequence (Q8TDD5 whole entry): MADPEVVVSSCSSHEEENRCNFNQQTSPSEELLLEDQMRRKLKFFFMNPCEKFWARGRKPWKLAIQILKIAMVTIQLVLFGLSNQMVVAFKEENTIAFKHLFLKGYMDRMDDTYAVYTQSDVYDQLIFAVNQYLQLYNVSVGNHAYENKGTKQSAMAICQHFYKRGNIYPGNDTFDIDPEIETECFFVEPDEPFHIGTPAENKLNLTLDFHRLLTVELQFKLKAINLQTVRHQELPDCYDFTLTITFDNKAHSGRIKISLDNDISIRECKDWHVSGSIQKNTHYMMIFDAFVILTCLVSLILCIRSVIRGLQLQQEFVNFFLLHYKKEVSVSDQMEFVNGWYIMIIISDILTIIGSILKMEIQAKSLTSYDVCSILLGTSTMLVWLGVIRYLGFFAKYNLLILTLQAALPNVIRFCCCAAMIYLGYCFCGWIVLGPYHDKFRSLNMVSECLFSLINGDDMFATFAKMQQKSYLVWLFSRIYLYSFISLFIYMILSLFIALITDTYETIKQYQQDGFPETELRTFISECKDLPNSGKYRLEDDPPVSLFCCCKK
Put plainly: Fluorescence counterscreen assay for […] agonists: dose response cell-based high-throughput screening assay to identify agonists of the transient receptor potential channel ML3 (TRPML3). [Related pubchem assays: 1424, 1448 ]. It is filed as functional.

Another assay concerns the target Ion channel NompC (Danio rerio, UniProt Q7T1G6). Put plainly: Dose response cell-based high-throughput screening assay for agonists of the transient receptor potential channel N1 (TRPN1). [Related pubchem assays (depositor defined):AID1424, AID1448]. It is filed as functional.
The next assay addresses T2, Estrogen receptor (Homo sapiens, UniProt P03372).
T2 sequence (P03372 whole entry): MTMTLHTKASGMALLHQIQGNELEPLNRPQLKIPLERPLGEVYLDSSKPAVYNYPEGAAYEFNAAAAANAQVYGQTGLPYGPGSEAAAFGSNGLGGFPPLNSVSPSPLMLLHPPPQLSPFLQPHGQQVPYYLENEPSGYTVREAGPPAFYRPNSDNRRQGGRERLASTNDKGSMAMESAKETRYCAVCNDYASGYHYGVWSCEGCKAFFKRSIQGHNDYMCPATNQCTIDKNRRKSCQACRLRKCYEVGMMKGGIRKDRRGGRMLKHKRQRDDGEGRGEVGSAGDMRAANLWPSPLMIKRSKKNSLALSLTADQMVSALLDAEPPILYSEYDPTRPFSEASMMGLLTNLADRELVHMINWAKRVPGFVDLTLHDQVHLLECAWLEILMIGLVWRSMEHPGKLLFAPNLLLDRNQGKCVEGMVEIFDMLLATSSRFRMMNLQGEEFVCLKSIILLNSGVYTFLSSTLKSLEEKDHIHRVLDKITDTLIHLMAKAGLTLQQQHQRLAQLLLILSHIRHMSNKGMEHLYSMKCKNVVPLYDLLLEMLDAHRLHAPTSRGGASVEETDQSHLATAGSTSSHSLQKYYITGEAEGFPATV

Assay [1] deals with T3, Alkaline phosphatase, tissue-nonspecific isozyme (Homo sapiens, UniProt P05186).
T3 sequence (P05186 whole entry): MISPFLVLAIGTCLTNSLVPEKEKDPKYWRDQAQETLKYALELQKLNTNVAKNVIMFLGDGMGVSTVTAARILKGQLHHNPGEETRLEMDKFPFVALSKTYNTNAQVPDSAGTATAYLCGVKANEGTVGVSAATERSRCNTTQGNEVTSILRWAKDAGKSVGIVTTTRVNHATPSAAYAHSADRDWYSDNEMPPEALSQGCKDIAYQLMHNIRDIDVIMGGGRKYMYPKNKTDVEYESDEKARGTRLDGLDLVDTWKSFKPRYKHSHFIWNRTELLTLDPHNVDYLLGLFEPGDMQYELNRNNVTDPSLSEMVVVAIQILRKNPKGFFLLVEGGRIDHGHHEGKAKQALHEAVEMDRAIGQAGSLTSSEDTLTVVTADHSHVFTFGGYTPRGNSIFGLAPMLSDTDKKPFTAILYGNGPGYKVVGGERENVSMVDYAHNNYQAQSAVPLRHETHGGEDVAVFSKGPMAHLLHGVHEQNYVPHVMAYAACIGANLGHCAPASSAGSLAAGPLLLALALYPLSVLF
Briefly: human TNAP enzyme inhibitors, SAR follow-up, biochemical, luminescent, dose response (AID 1056).

The target of assay [2] is Alkaline phosphatase, placental type (Homo sapiens, UniProt P05187). Put plainly: PLAP enzyme inhibitors, confirmation, biochemical, luminescence (AID 1512). Format: functional.
In a further assay the target is Coagulation factor XII (Homo sapiens, UniProt P00748). It is filed as functional.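 Also: activated factor XIIa alpha cleaving a fluorogenic AMC peptide substrate; inhibitor potency from loss of enzyme activity.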
The test system of another assay is Vero. Put plainly: cells. It is filed as functional. As to conditions: Chlorocebus sabaeus.
The target in assay [3] is T4, Type-1 angiotensin II receptor (Homo sapiens, UniProt P30556).
T4 sequence (P30556 whole entry): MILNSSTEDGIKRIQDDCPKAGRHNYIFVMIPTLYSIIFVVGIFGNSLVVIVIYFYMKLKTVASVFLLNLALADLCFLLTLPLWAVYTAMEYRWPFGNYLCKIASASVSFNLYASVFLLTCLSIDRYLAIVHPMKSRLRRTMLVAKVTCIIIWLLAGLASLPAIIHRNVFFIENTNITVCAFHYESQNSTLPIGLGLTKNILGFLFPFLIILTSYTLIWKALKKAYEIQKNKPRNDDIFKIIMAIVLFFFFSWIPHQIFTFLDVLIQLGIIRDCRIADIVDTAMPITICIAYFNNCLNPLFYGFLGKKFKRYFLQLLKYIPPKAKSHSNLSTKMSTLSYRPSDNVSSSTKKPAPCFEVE
Briefly: AT1 receptor agonists, dose response, selectivity assay for APJ receptor agonist project, cell-based, uHTS hits (AID 488865).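 Also: beta-arrestin recruitment to AT1 measured by enzyme fragment complementation luminescence.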 Format: functional.

In assay [4] the target is T5, Fatty acid synthase (Homo sapiens, UniProt P49327). Put plainly: FAS thioesterase domain inhibitors, dose response, biochemical, endpoint fluorescence intensity, uHTS hits (AID 624327).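 Also: fluorescence from hydrolysis of an O-methyl fluorescein acyl ester substrate by the enzyme.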 It is filed as functional.
Assay [5] deals with T5, Fatty acid synthase. Put plainly: FAS thioesterase domain inhibitors, dose response, biochemical, kinetic fluorescence intensity (AID 624326).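 Also: rate of fluorescence rise from hydrolysis of a fluorogenic O-methyl fluorescein ester substrate.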 It is filed as functional.
Assay [6] has as its target Protein phosphatase methylesterase 1 (Homo sapiens, UniProt Q9Y570). Put plainly: PME-1 inhibitors by competitive ABPP, late-stage follow-up, gel-based ABPP, IC50, set 1 (AID 463130). It is filed as functional.
For assay [7], the target named is T6, Cannabinoid receptor 1 (Homo sapiens, UniProt P21554). Briefly: SAR analysis of agonists of the Cannabinoid Receptor 1 using an Image-Based Assay - Set 3. [Related pubchem assays (depositor defined):AID1961, AID1965]. Format: functional.
Assay [8] concerns the target G-protein coupled receptor 55 (Homo sapiens, UniProt Q9Y2T6). Briefly: SAR analysis of selective Agonists of GPR55 using an Image-Based Assay - Set 2. [Related pubchem assays (depositor defined):AID1961, AID1965]. Format: functional.
For assay [9], the target named is T6, Cannabinoid receptor 1. Briefly: SAR analysis of antagonists of the Cannabinoid Receptor 1 using an Image-Based Assay - Set 3. [Related pubchem assays (depositor defined):AID1961, AID1965]. It is filed as functional.
Assay [10] deals with T7, Cannabinoid receptor 2 (Homo sapiens, UniProt P34972). Briefly: SAR analysis of antagonists of the Cannabinoid Receptor 2 using an Image-Based Assay - Set 2. [Related pubchem assays (depositor defined):AID1961, AID1965]. Format: functional.
For assay [11], the target named is T8, G-protein coupled receptor 35 (Homo sapiens, UniProt Q9HC97). Put plainly: SAR analysis of Agonists of the GPR35 Receptor using an Image-Based Assay - Set 3. [Related pubchem assays (depositor defined):AID1961, AID1965]. It is filed as functional.
Assay [12] deals with T8, G-protein coupled receptor 35. Briefly: SAR analysis of Antagonists of the GPR35 Receptor using an Image-Based Assay - Set 4. [Related pubchem assays (depositor defined):[…]]. Format: functional.
Assay [13] has as its target T7, Cannabinoid receptor 2. Put plainly: SAR analysis of agonists of the Cannabinoid Receptor 2 using an Image-Based Assay - Set 2. [Related pubchem assays (depositor defined):AID1961, AID1965]. It is filed as functional.
A further assay relates to Streptococcus. Briefly: Group A Streptococcus viability loss, dose response, counter-screen for streptokinase expression inhibitor project, luminescence, BacTiterGlo (AID 1915).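 Also: potency for reduction of bacterial viability or growth.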 Format: functional, organism-based.
Assay [14] deals with DNA damage-inducible transcript 3 protein (Mus musculus, UniProt P35639). Format: functional, Cricetulus griseus.
The nature of assay [15]: cytotoxicity in HPDE-C7 cells, cell-based, fluorescence, HTS (AID 430). Format: functional. As to conditions: Homo sapiens.
Assay [16] in a line: cytotoxicity in KRAS-transformed pancreatic duct cells, primary screen, cell-based, fluorescence, HTS (AID 431).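 Also: cell line used: HPDE-C7K.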 It is filed as functional. As to conditions: Homo sapiens.
Another assay addresses T9, Streptokinase A (Streptococcus pyogenes serotype M1, UniProt P10520).
T9 sequence (P10520 whole entry): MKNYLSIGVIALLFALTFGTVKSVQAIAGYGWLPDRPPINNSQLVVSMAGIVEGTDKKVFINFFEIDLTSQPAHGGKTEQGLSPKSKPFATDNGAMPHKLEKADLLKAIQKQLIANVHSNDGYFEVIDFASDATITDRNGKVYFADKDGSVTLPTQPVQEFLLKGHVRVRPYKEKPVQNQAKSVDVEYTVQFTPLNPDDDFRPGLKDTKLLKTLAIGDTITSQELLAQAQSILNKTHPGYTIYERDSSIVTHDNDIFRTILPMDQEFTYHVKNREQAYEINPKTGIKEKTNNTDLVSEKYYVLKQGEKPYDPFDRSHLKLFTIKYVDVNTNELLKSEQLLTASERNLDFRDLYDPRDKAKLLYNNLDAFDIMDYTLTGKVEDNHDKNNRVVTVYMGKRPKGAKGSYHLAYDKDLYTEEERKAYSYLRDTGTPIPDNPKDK
Briefly: S. pyogenes streptokinase expression inhibitors, potency, dose response, plasminogen activation absorbance, OD405 (AID 1914).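 Also: secreted streptokinase activity via plasminogen activation per viability signal from cell pellet.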 Format: functional, Streptococcus pyogenes M1 GAS.

For a further assay, the target named is Beta-galactosidase (Escherichia coli, UniProt Q8VNN2). Briefly: Dose response counterscreen for EBI2 assay utilizing the enzyme, b-galactosidase. It is filed as functional.
The subject of assay [17] is Streptococcus sp. 'group A'. Briefly: growth inhibition of control SK(-) GAS strain, dose response, counter-screen for streptokinase expression inhibitor project, luminescence, kanamycin, BacTiterGlo, confirmation (AID 1900). It is filed as functional, organism-based.
Assay [18] concerns the target DNA dC->dU-editing enzyme APOBEC-3A (Homo sapiens, UniProt P31941). Put plainly: Dose Response confirmation of small molecule APOBEC3A DNA Deaminase Inhibitors via a fluorescence-based single-stranded DNA deaminase assay. [Related pubchem assays (depositor defined):AID493011, AID493024]. It is filed as functional.
Assay [19] has as its target DNA dC->dU-editing enzyme APOBEC-3G (Homo sapiens, UniProt Q9HC16). Format: functional.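 Also: Dose-response counterscreen measuring inhibition of APOBEC3G DNA deaminase activity, run while confirming APOBEC3A inhibitors.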
Assay [20] deals with Polyadenylate-binding protein 1 (Homo sapiens, UniProt P11940). Briefly: PABP poly(A) RNA binding inhibitors, primary screen, biochemical, fluorescence polarization, uHTS (AID 2014).
Assay [21] concerns the target Eukaryotic translation initiation factor 4H (Homo sapiens, UniProt Q15056). Briefly: human eIF4H binding inhibitors, primary screen, translation initiation inhibitor project, biochemical, uHTS, fluorescence polarization (AID 2012).

T6 sequence (P21554 whole entry): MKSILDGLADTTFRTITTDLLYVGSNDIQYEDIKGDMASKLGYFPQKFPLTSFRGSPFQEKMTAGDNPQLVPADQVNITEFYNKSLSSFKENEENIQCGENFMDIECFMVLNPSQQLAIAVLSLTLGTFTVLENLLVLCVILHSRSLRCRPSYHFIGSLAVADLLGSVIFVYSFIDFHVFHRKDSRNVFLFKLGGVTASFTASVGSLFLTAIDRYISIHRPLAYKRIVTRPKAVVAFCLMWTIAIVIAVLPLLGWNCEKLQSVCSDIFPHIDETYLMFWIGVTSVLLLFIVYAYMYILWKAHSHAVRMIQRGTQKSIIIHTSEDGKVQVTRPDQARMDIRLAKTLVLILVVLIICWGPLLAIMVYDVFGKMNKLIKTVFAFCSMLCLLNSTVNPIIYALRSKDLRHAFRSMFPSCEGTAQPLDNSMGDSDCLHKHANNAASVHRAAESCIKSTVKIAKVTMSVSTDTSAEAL
T5 sequence (P49327 whole entry, the tested form may be a part): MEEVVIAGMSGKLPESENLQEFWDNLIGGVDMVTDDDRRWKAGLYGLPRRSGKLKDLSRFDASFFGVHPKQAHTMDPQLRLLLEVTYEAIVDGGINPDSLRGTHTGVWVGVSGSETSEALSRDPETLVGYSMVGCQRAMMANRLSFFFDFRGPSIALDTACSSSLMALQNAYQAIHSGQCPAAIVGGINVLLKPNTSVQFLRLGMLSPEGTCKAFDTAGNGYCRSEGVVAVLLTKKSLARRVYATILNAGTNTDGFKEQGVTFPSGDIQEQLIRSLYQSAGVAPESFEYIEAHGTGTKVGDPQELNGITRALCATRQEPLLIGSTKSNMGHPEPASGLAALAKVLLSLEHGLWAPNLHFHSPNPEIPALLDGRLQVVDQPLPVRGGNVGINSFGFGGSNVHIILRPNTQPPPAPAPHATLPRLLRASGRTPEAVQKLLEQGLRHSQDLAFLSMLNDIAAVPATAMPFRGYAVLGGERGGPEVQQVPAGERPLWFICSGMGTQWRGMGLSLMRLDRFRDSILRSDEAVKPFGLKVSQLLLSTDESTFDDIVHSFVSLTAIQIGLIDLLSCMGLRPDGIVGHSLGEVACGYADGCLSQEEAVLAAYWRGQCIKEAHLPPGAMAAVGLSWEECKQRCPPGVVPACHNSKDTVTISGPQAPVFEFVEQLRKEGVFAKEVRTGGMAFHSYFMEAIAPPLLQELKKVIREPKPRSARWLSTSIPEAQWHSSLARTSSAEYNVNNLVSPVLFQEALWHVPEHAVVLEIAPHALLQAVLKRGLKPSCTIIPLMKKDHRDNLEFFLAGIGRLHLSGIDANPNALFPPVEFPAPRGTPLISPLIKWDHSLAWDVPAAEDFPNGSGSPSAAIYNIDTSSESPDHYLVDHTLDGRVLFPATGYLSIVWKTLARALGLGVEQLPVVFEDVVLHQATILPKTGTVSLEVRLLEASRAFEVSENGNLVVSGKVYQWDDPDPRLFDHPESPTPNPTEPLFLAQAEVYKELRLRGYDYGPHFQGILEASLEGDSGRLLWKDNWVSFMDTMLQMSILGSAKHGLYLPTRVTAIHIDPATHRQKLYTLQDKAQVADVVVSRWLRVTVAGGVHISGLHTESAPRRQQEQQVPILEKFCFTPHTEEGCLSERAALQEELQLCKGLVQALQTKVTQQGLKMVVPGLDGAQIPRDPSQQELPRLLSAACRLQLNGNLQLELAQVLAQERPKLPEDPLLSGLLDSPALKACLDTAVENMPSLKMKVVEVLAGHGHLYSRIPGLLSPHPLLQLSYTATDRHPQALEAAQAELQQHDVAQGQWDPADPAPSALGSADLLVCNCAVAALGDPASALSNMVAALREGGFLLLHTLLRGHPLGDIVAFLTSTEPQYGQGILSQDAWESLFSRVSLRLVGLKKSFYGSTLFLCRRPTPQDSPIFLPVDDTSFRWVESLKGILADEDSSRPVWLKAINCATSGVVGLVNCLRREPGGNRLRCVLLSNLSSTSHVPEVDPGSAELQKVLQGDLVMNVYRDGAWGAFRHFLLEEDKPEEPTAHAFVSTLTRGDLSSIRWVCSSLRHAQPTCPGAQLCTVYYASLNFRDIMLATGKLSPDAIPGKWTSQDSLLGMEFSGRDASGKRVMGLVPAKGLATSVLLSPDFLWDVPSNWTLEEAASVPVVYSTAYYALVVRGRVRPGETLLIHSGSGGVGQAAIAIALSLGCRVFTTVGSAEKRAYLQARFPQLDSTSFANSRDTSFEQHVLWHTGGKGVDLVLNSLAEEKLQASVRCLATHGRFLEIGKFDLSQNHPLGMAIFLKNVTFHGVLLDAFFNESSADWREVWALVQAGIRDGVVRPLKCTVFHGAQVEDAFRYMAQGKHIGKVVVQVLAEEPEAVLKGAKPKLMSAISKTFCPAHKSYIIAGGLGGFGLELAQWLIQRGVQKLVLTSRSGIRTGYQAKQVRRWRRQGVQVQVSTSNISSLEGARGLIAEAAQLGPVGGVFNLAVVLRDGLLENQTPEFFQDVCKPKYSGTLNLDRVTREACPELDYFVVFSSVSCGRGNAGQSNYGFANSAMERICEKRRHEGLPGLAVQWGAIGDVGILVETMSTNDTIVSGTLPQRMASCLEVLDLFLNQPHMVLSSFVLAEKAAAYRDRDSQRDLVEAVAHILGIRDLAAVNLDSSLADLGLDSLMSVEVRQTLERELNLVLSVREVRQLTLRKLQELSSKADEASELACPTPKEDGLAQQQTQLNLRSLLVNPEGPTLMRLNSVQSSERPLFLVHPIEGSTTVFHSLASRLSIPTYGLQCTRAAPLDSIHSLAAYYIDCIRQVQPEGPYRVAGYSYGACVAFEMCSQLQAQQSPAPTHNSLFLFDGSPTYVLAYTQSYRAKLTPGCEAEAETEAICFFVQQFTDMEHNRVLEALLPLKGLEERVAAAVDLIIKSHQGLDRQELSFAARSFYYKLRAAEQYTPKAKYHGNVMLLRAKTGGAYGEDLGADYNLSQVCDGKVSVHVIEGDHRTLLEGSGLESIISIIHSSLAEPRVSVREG
T8 sequence (Q9HC97 whole entry): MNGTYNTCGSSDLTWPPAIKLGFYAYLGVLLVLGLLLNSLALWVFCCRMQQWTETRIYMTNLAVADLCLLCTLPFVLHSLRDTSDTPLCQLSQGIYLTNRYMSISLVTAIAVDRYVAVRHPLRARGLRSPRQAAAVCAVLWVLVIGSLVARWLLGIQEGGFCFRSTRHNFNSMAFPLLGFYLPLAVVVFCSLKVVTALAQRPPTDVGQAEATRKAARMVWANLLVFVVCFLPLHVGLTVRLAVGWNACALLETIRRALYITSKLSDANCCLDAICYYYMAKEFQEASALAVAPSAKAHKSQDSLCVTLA
T7 sequence (P34972 whole entry): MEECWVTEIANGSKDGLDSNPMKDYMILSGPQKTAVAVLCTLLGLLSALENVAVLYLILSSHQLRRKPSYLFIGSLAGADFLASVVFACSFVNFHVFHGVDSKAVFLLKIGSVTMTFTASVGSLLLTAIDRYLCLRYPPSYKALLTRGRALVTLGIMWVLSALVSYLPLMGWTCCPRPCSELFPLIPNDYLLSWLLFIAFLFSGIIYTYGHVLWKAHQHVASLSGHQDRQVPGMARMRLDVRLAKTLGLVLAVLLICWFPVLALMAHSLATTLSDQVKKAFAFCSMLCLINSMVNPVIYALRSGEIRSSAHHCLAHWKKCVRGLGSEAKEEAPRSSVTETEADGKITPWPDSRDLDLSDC
Beta-galactosidase, sequence (Q8VNN2 whole entry): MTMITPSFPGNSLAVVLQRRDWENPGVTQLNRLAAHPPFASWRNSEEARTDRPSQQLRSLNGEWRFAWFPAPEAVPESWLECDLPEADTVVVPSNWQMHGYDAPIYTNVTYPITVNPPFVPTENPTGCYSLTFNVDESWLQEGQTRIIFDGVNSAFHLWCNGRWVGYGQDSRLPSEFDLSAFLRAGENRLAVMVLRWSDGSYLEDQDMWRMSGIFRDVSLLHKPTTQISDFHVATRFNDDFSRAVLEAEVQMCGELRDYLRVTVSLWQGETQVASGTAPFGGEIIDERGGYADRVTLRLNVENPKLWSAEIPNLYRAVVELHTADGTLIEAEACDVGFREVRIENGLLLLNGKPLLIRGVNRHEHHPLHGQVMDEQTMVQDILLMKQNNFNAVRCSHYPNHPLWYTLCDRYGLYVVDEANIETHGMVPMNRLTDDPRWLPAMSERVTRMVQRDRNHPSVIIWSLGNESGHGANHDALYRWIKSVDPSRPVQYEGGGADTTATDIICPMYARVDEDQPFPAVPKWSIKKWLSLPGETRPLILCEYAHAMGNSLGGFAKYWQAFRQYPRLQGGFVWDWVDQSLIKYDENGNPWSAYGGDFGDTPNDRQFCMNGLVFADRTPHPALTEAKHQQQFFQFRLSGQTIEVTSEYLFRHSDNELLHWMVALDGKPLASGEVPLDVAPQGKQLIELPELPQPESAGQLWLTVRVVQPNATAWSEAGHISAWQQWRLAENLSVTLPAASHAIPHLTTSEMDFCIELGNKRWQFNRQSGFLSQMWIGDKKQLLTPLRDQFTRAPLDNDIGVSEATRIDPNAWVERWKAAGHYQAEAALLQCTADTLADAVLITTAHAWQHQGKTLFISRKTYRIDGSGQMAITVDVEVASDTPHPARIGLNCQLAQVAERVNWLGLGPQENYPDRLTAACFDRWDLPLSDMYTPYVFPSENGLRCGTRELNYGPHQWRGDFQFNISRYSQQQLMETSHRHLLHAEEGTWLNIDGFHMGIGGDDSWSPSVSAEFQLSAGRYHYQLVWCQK
DNA dC->dU-editing enzyme APOBEC-3A, sequence (P31941 whole entry): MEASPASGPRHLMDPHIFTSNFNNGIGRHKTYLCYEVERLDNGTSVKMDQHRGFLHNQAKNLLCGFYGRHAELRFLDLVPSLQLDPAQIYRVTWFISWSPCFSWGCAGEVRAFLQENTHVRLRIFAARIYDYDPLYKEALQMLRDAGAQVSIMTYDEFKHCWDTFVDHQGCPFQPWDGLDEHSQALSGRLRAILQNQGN
DNA damage-inducible transcript 3 protein, sequence (P35639 whole entry): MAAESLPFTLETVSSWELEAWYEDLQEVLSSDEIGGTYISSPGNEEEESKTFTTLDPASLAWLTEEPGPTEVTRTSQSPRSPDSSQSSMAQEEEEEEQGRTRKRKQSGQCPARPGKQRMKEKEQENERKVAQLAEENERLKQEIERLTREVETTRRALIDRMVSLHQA

`CCN1C(=O)/C(=C/c2ccc(N3CCCC3)cc2)NC1=S`: the concentration for a half-maximal effect (EC50) on Mucolipin-3 is 2.43 µM (active); on Ion channel NompC, 1.28 µM (active).

For the molecule `CNc1nnc(-c2cc3cc(Cl)ccc3oc2=O)s1`, the IC50 at Estrogen receptor was 11.1 µM (active); in [1], > 100 µM (inactive); in [2], > 100 µM (inactive).

For the molecule `COC(=O)c1ccc(C(C(=O)NC2CCCCC2)N(CCN2CCOCC2)C(=O)Cc2cccs2)cc1` (centres undefined), the IC50 on Coagulation factor XII was > 50 µM (inactive).

Turning to `CCN(CC)CCNC(=O)c1cc(-c2cccnc2)nc2ccc(S(=O)(=O)N3CCC(C)CC3)cc12`, the CC50 in the assay with Vero was 9.06 µM (active). In addition, the EC50 in assay [3] was > 100 µM (inactive).

For `COC(=O)N1C(=O)[C@](c2ccc(OC)cc2)(C(C)C)N1C(=O)OC`, the IC50 on Fatty acid synthase [4] is 3.86 µM (active); on Fatty acid synthase [5], 2.06 µM (active); in [6], 69 nM (active).

With `Cc1cc2cc3c(cc2n2c(SCC(=O)Nc4nc(-c5ccccc5)cs4)nnc12)OCCO3`, the EC50 at Cannabinoid receptor 1 [7] was > 32 µM (inactive); in [8] it was 4.42 µM (active); in [11], > 32 µM (inactive); at Cannabinoid receptor 2 [13], > 32 µM (inactive). Further, the IC50 at Cannabinoid receptor 1 [9] was 12.7 µM (inactive); at Cannabinoid receptor 2 [10], > 32 µM (inactive); in [12] it was > 32 µM (inactive).

As to `Nc1c(S(=O)(=O)c2ccccc2)c2nc3ccccc3nc2n1/N=C/c1cccc(O)c1`, the EC50 with Streptococcus was 75.4 µM (active); in assay [15] it was 2.92 µM (active); in assay [16] it was 2.83 µM (active); at Streptokinase A, 23.6 µM (active); in assay [17], 7.72 µM (active). The “Absolute IC50 (CHOP)” value in assay [14] was determined as 10 µM. Besides, the IC50 at Beta-galactosidase was > 80 µM (inactive).

With `Oc1ccccc1C=N[n+]1ccccc1`, the half-maximal inhibitory concentration (IC50) in [18] is 2.88 µM (active); in assay [19], 5.33 µM (active); in [20], 5.32 µM (active); in [21], > 100 µM (inactive).
